Structures can show the parent of a compound that is named as a salt.

The test system of the first test is platelet aggregation in human platelet rich plasma (PRP). Description: Platelet Aggregation Assay (platelet rich plasma, with or without esterase pretreatment). The format is cell-based. The settings on record: Platelet, preincubated with 100 IU/mL porcine liver esterase 2 hours at 37° C., 100 μM ADP, read-out: Platelet Aggregation Assay IC50 (with esterase). The protocol: Venous blood was obtained from the arm of a healthy human donor who was drug-free and aspirin-free for at least two weeks prior to blood collection. Blood was collected into 10 mL citrated Vacutainer tubes. The blood was centrifuged for 15 minutes at 150×g at room temperature, and platelet-rich plasma (PRP) was removed. The remaining blood was centrifuged for 15 minutes at 1500×g at room temperature, and platelet-poor plasma (PPP) was removed. Samples were assayed on a aggregometer (PAP-4 Platelet Aggregation Profiler), using PPP as the blank (100% transmittance). 200 μL of PRP was added to each micro test tube, and transmittance was set to 0%. 20 μL of various agonists (ADP, collagen, arachidonate, epinephrine, thrombin) were added to each tube, and the aggregation profiles were plotted (% transmittance versus time). The results are expressed as % inhibition of agonist-induced platelet aggregation. For the IC50 evaluation, the test compounds were added at various concentrations prior to the activation of the platelets.
Ester prodrugs were preincubated (10^-3 M F.C.) with 100 IU/mL Porcine liver esterase (Sigma Chemical Co., St. Louis, Mo., #E-3128) for 2 hours at 37° C. Aliquots are then diluted in 0.1M Tris, pH 7.4, to the desired concentrations. Aliquots of 20 μl of the esterase pretreated prodrugs are added to 200 μl of human platelet rich plasma. Samples were placed in platelet profiler (aggregometer) for 8 minutes at 37° C., followed by the addition of 100 μM Adenosine Diphosphate, (Sigma Chemical Co., St. Louis, Mo., #A-6521), to induce platelet aggregation. Platelet aggregation was allowed to proceed for 5 minutes. Percent inhibition is calculated using percent aggregation in the presence of the test compound divided by percent aggregation of control, times 100. This value is subtracted from 100, yielding percent inhibition. Calculation of IC50 is performed on a Texas Instruments TI59 with an IC50 program.
Table A below sets forth the antiplatelet activity of representative compounds of the present invention. The indicated compounds were tested for their ability to inhibit platelet aggregation (using platelet rich plasma (PRP)). The IC50 value (the concentration of antagonist which inhibits platelet aggregation by 50% relative to a control lacking the antagonist) is shown. In Table 5 the IC50 values are expressed as: +++=IC50 of <10 μM; ++=IC50 of 10-50 μM; +=IC50 of 50-100 μM (μM=micromolar).
As to `CCCCOC(=O)NC(CNC(=O)CC1CC(c2ccc(C(=N)N)cc2F)=NO1)C(=O)OC` (stereo not drawn) [Example 613], the half-inhibitory concentration (IC50) (as a rule, the concentration that inhibits the measured activity by half) is below 10 µM.

As to `N=C(N)NCCC1=NOC(C(=O)NCC(NC(=O)OCc2ccccc2)C(=O)O)C1` (stereo not drawn) [Example 2405], the IC50 was below 10 µM.

As for `COC(=O)C(CNC(=O)CC1CC(c2ccc(C(=N)N)cc2)=NO1)NS(=O)(=O)c1c(C)c(C)cc(C)c1C` (stereo not drawn) [Example 485], the IC50 is below 10 µM.

As to `COC(=O)[C@H](CNC(=O)CC1CC(c2ccc(C(=N)N)cc2)=NO1)NS(=O)(=O)c1cccc(C)c1` (stereo partly drawn) [Example 473A, Methyl N^2-3-methylphenylsulfonyl-N^3-[3-(4-amidinophenyl)isoxazolin-5R-ylacetyl]-S-2,3-diaminopropionate trifluoroacetic acid salt], the IC50 is below 10 µM.

With `CCCC[C@H](CC(=O)OC)NC(=O)CC1CC(c2ccc(C(=N)N)cc2)=NO1` (stereo partly drawn) [Example 344, Methyl 3(R)-{5(R,S)-N-[3-(4-Amidinophenyl)isoxazolin-5-ylacetyl]amino}heptanoate], the IC50 was below 10 µM.

Consider `COC(=O)CC(CCc1ccncc1)NC(=O)CC1CC(c2ccc(C(=N)N)cc2)=NO1` (stereo not drawn) [Example 450], for which the IC50 is below 10 µM.

Regarding `COC(=O)CC(NC(=O)CC1CC(c2ccc(C(=N)N)cc2)=NO1)C(=O)N1CCN(Cc2ccccc2)CC1` (stereo not drawn) [Example 455], the IC50 was below 10 µM.

In the case of `CCCCOC(=O)N[C@@H](CNC(=O)CC1=NOC(c2ccc(C(=N)N)cc2)C1)C(=O)OC` (stereo partly drawn) [Example 829, Methyl N^2-n-butyloxycarbonyl-N^3-[5-(4-amidinophenyl)isoxazolin-3-ylacetyl]-(2S)-2,3-diaminopropionate], the IC50 was below 10 µM.

In the case of `CCCCOC(=O)N[C@@H](CNC(=O)C[C@@H]1CC(c2ccc(C(=N)N)cc2)=NO1)C(=O)OC` [Example 314A, Methyl N^2-n-butyloxycarbonyl-N^3-[3-(4-amidinophenyl)isoxazolin-5(S)-ylacetyl]-(S)-2,3-diaminopropionate TFA salt], the IC50 is below 10 µM.

Take `COC(=O)[C@H](CNC(=O)CC1CC(c2ccc(C(=N)N)cc2F)=NO1)NS(=O)(=O)c1cccc(C)c1` (stereo partly drawn) [Example 512, Methyl N^2-(m-toluenesulfonyl)-N^3-[3-(4-amidino-2-fluorophenyl)isoxazolin-5-ylacetyl]-S-2,3-diaminopropionate hydrochloric acid salt]: the IC50 was below 10 µM.

Regarding `N=C(N)NCCCCC1=NOC(CCC(=O)NCC(NC(=O)OCc2ccccc2)C(=O)O)C1` (stereo not drawn) [Example 2404], the IC50 was below 10 µM.

`COC(=O)C[C@H](CCc1ccccc1)NC(=O)CC1CC(c2ccc(C(=N)N)cc2)=NO1` (stereo partly drawn) [Example 120b, Methyl 3(S)-{5(R,S)-N-[3-(4-amidinophenyl)isoxazolin-5-ylacetyl]amino}-3-phenethylpropanoate]: the IC50 is below 10 µM.

On to `COC(=O)CC(NC(=O)CC1CC(c2ccc(C(=N)N)cc2)=NO1)c1ccccc1` (stereo not drawn) [Example 89], for which the IC50 is below 10 µM.

As to `COC(=O)C(CNC(=O)CC1CC(c2ccc(C(=N)N)cc2)=NO1)NS(=O)(=O)c1ccccc1` (stereo not drawn) [Example 326], the IC50 was below 10 µM.

Take `COC(=O)[C@H](CNC(=O)CC1CC(c2ccc(C(=N)N)cn2)=NO1)NS(=O)(=O)c1cccc(C)c1` (stereo partly drawn) [Example 514, Methyl N^2-(m-toluenesulfonyl)-N^3-3-(3-amidinopyrid-6-yl)isoxazolin-5-ylacetyl]-S-2,3-diaminopropionate hydrochloric acid salt]: the IC50 is below 10 µM.

Regarding `COC(=O)C(CNC(=O)CC1CC(c2ccc(C(=N)N)cc2)=NO1)NS(=O)(=O)c1ccc(F)cc1` (stereo not drawn) [Example 483], the IC50 was below 10 µM.

On to `COC(=O)CC(NC(=O)CC1CC(c2ccc(C(=N)N)cc2)=NO1)C(=O)NCCc1ccccc1` (stereo not drawn) [Example 452], for which the IC50 is below 10 µM.

As to `N=C(N)NCCC1=NOC(CCC(=O)NCC(NC(=O)OCc2ccccc2)C(=O)O)C1` (stereo not drawn) [Example 2400], the IC50 was below 10 µM.

As for `COC(=O)CC(CSc1ccccc1)NC(=O)CC1CC(c2ccc(C(=N)N)cc2)=NO1` (racemic) [Example 350, Methyl 3(R,S)-N-(R,S)-{5-[3-(4-amidinophenyl)isoxazolin-5-ylacetyl]amino}-4-(phenylthio)butanoate hydrochloric acid salt], the IC50 is below 10 µM.

Consider `N=C(N)NCCCC1=NOC(C(=O)NCC(NC(=O)OCc2ccccc2)C(=O)O)C1` (stereo not drawn) [Example 2401], for which the IC50 is below 10 µM.

Turning to `COC(=O)C(CNC(=O)CC1CC(c2ccc(C(=N)N)cc2)=NO1)NS(=O)(=O)c1cc2ccccc2s1` (stereo not drawn) [Example 555], the IC50 was below 10 µM.

Take `COC(=O)[C@H](CNC(=O)CC1CC(c2ccc(C(=N)N)cc2)=NO1)NS(=O)(=O)C=C(c1ccccc1)c1ccccc1` (stereo partly drawn) [Example 496, Methyl N^2-(2,2-diphenyl-1-ethenesulfonyl)-N^3-[3-(4-amidinophenyl)isoxazolin-5-(R,S)-ylacetyl]-(S)-2,3-diaminopropionate, trifluoroacetic acid salt]: the IC50 was below 10 µM.

For `COC(=O)C(CNC(=O)CC1CC(c2ccc(C(=N)N)cc2)=NO1)NS(=O)(=O)c1cccnc1` (stereo not drawn) [Example 494], the IC50 is below 10 µM.

On to `CCCCOC(=O)N[C@@H](CNC(=O)C[C@H]1CC(c2ccc(C(=N)N)cc2)=NO1)C(=O)OC` [Example 314B, Methyl-N^2-n-butyloxycarbonyl-N^3-[3-(4-amidinophenyl)isoxazolin-5(R)-ylacetyl]-(S)-2,3-diaminopropionate TFA salt], for which the IC50 is below 10 µM.

For the molecule `CCCCNS(=O)(=O)NC(CNC(=O)CC1CC(c2ccc(C(=N)N)cc2)=NO1)C(=O)OC` (stereo not drawn) [Example 504], the IC50 is below 10 µM.

In the case of `N=C(N)c1ccc(C2=NOC(CC(=O)NC[C@H](N)C(=O)O)C2)cc1` (stereo partly drawn) [Example 275, N^3-[3-(4-amidinophenyl)isoxazolin-5(R,S)-ylacetyl]-L-2,3-diaminopropionic acid TFA salt], the half-maximal inhibitory concentration (IC50) is below 10 µM.

Consider `CCCCNC(=N)c1ccc(C2=NOC(CC(=O)NCC(NS(=O)(=O)c3ccccc3C)C(=O)OC)C2)cc1` (stereo not drawn) [Example 2113], for which the IC50 is below 10 µM.

`COC(=O)C(CNC(=O)CC1CC(c2ccc(C(=N)N)cc2)=NO1)NC(=O)Nc1cccc2ccccc12` (stereo not drawn) [Example 519]: the IC50 is below 10 µM.

For the molecule `COC(=O)C[C@@H](CCc1ccccc1)NC(=O)CC1CC(c2ccc(C(=N)N)cc2)=NO1` (stereo partly drawn) [Example 120a, Methyl 3(R)-{5(R,S)-N-[3-(4-amidinophenyl)isoxazolin-5-ylacetyl]amino}-3-phenethylpropanoate], the half-inhibitory concentration (IC50) was below 10 µM.

For `N=C(N)NCCCCC1=NOC(C(=O)NCC(NC(=O)OCc2ccccc2)C(=O)O)C1` (stereo not drawn) [Example 2406], the IC50 was below 10 µM.

As for `Cc1cccc(S(=O)(=O)NC(CNC(=O)Cc2cc(-c3ccc(C(=N)N)cc3)no2)C(=O)O)c1` (stereo not drawn) [Example 798], the IC50 is below 10 µM.

The same test, now with this note: Platelet, without esterase, given as a bound, not a class symbol, read-out: Platelet Aggregation Assay IC50 (without esterase).
For `COC(=O)C1(CC(=O)O)CC(c2ccc(OCCC3CCNCC3)cc2)=NO1` (racemic) [Example 33, Trifluoroacetic Acid Salt], the IC50 is above 100 µM.

The same test, now with this note: Platelet, without esterase, read-out: Platelet Aggregation Assay IC50 (without esterase).
Consider `N=C(N)c1ccc(C2=NOC(CC(=O)NCC(NC(=O)OCc3ccccc3Cl)C(=O)O)C2)cc1` (stereo not drawn) [Example 526], for which the IC50 was below 10 µM.

Take `N=C(N)c1ccc(C2=NOC(CC(=O)NCC(NC(=O)OCc3ccccc3Br)C(=O)O)C2)cc1` (stereo not drawn) [Example 528]: the IC50 was below 10 µM.

For `N=C(N)c1ccc(C2=NOC(CC(=O)N3CCCCC3CC(=O)O)C2)cc1` [Example 375, 2-(R,S)-2-Carboxymethyl-1-{5-(R,S)-N-[3-(4-amidinophenyl)isoxazolin-5-ylacetyl]}piperidine], the IC50 was below 10 µM.

For `COC(=O)CC1C(=O)NCCN1C(=O)CC1CC(c2ccc(C(=N)N)cc2)=NO1` (racemic) [Example 400, 3-(R,S)-(Methoxy-2-oxoethyl)-4-{5-(R,S)-N-[3-(4-amidinophenyl)isoxazolin-5-ylacetyl]}piperazin-2-one], the IC50 is below 10 µM.

On to `N=C(N)c1ccc(C2=NOC(CC(=O)NC(CC(=O)O)C(=O)NCC34CC5CC(CC(C5)C3)C4)C2)cc1` (stereo not drawn) [Example 463], for which the IC50 is below 10 µM.

The same test, now with this note: preincubated with 100 IU/mL porcine liver esterase 2 hours at 37° C., 100 μM ADP, read-out: Platelet Aggregation Assay IC50 (with esterase).
For `CCCS(=O)(=O)NC(CNC(=O)CC1CC(c2ccc(C(=N)N)cc2)=NO1)C(=O)OC` (stereo not drawn) [Example 539], the IC50 was below 10 µM.

For `COC(=O)C[C@@H](Cc1ccccc1)NC(=O)CC1CC(c2ccc(C(=N)N)cc2)=NO1` (stereo partly drawn) [119A (3R)], the IC50 was below 10 µM.

The values are drawn from patent publication US5849736A, “Isoxazoline and isoxazole fibrinogen receptor antagonists” (The DuPont Merck Pharmaceutical Company, priority 1995, dated 1998).
